Data as given in patent publication US4481201A, “Pharmaceutical composition containing N,N^3 -di-(β-bromopropionyl)-N^1,N^2 -dispirotripiperazinium dichloride” (Vsesojuzny Nauchno-Issledovatelsky Khimoko-Farmasevtichesky …, priority 1981, dated 1984).

Columns and labels:
[1] = Growth of graft sarcoma 45 in rats; type: in vivo; details: rat, in vivo, ip, rats with sarcoma 45, repeated intraperitoneal administration; read-out: Maximum tolerable dose (MTD)
Text: (§1) The antitumor activity has been studied on white rats weighing 110-130 g, as well as on white noninbred and inbred mice weighing 17-21 g with ligated tumors. The treatment is started 5-7 days transplanting of solid tumors and the following day after the transplanting of leukotic strains. Use has been made of the following transplantable strains of the tumors:
(§2) (1) rats: Ienssen's sarcoma, sarcoma 45, sarcoma M-1, sarcoma 536;
(§3) The compounds of the general formula (I), wherein X represents Cl^- (compound 1), Br^- (compound 2) are well-soluble in an isotonic solution of sodium chloride and they are administered intraperitoneally. The doses of the compounds have been calculated in mg per kg of the animal bodyweight.

sarcoma 45 = test: Growth of graft sarcoma 45 in rats; type: in vivo; details: rats
Text: as §1, §2, §3

[2] = Growth of graft sarcoma 536 in rats; type: in vivo; details: rat, in vivo, ip, rats with sarcoma 536, repeated intraperitoneal administration; read-out: Maximum tolerable dose (MTD)
Text: as §1, §2, §3

sarcoma 536 = test: Growth of graft sarcoma 536 in rats; type: in vivo; details: rats
Text: as §1, §2, §3

[3] = Growth of graft sarcoma 37 in mice; type: in vivo, noninbred white mice; details: mouse, in vivo, ip; mice with sarcoma 37, repeated intraperitoneal administration; read-out: Maximum tolerable dose (MTD)
Text: as §1
(§4) (2) noninbred white mice: sarcoma 180, sarcoma AK, sarcoma 37, carcinoma HK;
as §3

sarcoma 37 = test: Growth of graft sarcoma 37 in mice; type: in vivo, noninbred white mice; details: mice
Text: as §1, §4, §3

[4] = Growth of graft sarcoma M-1 in rats; type: in vivo; details: rat, in vivo, ip, rats with sarcoma M-1, repeated intraperitoneal administration; read-out: Maximum tolerable dose (MTD)
Text: as §1, §2, §3

sarcoma M-1 = test: Growth of graft sarcoma M-1 in rats; type: in vivo; details: rats, 5 injections
Text: as §1, §2, §3

[5] = Growth of graft carcinoma HK in mice; type: in vivo, noninbred white mice; details: mouse, in vivo, ip; mice with carcinoma HK, repeated intraperitoneal administration; read-out: Maximum tolerable dose (MTD)
Text: as §1, §4, §3

carcinoma HK = test: Growth of graft carcinoma HK in mice; type: in vivo, noninbred white mice; details: mice, 6 injections
Text: as §1, §4, §3

[6] = Distribution of C^14-labeled preparation within organs and tissues of rats with sarcoma M-1; type: in vivo; details: rats with sarcoma M-1, intravenous
Text: Furthermore, the particular distribution of the preparation according to the present invention within organs and tissues should also be noted.
In the case of administration of the preparation according to the present invention labeled with C^14, a higher level of radioactivity in blood is observed than in the case of prospidin labeled with C^14. A higher rate of accumulation of the preparation according to the present invention as compared to prospidin is observed in larynx, windpipe, bronchi, bone marrow, tumor and thyroid gland. The preparation according to the present invention labeled with C^14 is withdrawn from the organism within 24 hours after the intravenous administration mainly with urine, while C^14 --labeled prospidin is retained in the organism for a longer period.

[7] = 50 mg/kg intraperitoneally, 7 injections
[8] = 80 mg/kg intraperitoneally, 5 injections
[9] = 70 mg/kg intraperitoneally, 6 injections
[10] = 75 mg/kg intraperitoneally, 7 injections
[11] = 250 mg/kg intraperitoneally (MTD)

Structure (SMILES): O=C(CCBr)N1CC[N+]2(CC1)CC[N+]1(CCN(C(=O)CCBr)CC1)CC2 [Compound 1, N,N^3 -di-(β-bromopropionyl)-N^1,N^2 -dispirotripiperazinium dichloride]
- MTD [1]: 125 mg/kg
- Change in the animal body weight, test (sarcoma 45; 20 mg/kg intraperitoneally, 7 injections): -12 g
- It, % tumor growth suppression index (sarcoma 45; 20 mg/kg intraperitoneally, 7 injections, 20 mg/kg): 0%
- Change in the animal body weight, test (sarcoma 45; [7]): -8 g
- It, % tumor growth suppression index (sarcoma 45; [7]): +61%
- Change in the animal body weight, test (sarcoma 45; [8]): -9 g
- It, % tumor growth suppression index (sarcoma 45; [8]): +99%
- Change in the animal body weight, test (sarcoma 45; 125 mg/kg intraperitoneally (MTD), 5 injections): -3 g
- MTD [2]: 140 mg/kg
- tumor growth suppression class, Sarcoma 536 (sarcoma 536): ++ (tumor growth suppression by 80-95%)
- Change in the animal body weight, test (sarcoma 536; [7]): -15 g
- It, % tumor growth suppression index (sarcoma 536; [7]): +45%
- Change in the animal body weight, test (sarcoma 536; [9]): -22 g
- It, % tumor growth suppression index (sarcoma 536; [9]): +55%
- Change in the animal body weight, test (sarcoma 536; 140 mg/kg intraperitoneally (MTD), 6 injections): -32 g
- It, % tumor growth suppression index (sarcoma 536; 140 mg/kg intraperitoneally (MTD), 6 injections, listed as preparation of the invention, 140 mg/kg): 78%
- MTD [3]: 277 mg/kg
- Change in the animal body weight, test (sarcoma 37; [10]): -2 g
- It, % tumor growth suppression index (sarcoma 37; [10]): +74%
- It, % tumor growth suppression index (sarcoma 37; 150 mg/kg intraperitoneally, 5 injections): +53%
- Change in the animal body weight, test (sarcoma 37; 277 mg/kg intraperitoneally (MTD), 6 injections): -4 g
- MTD [4]: 111 mg/kg
- Change in the animal body weight, test (sarcoma M-1; 90 mg/kg intraperitoneally): +7 g
- It, % tumor growth suppression index (sarcoma M-1; 90 mg/kg intraperitoneally): +96%
- Change in the animal body weight, test (sarcoma M-1; 111 mg/kg intraperitoneally (MTD)): +4 g
- MTD [5]: 250 mg/kg
- Change in the animal body weight, test (carcinoma HK; 125 mg/kg intraperitoneally): -3 g
- It, % tumor growth suppression index (carcinoma HK; 125 mg/kg intraperitoneally): +42%
- Change in the animal body weight, test (carcinoma HK; [11]): -4 g
- It, % tumor growth suppression index (carcinoma HK; [11]): +86%
- Coefficient of differential accumulation, Blood ([6]; 15 min): 1.43
- Coefficient of differential accumulation, Bone marrow ([6]; 15 min): 3.84
- Coefficient of differential accumulation, Bronchi ([6]; 15 min): 3.4
- Coefficient of differential accumulation, Hypophysis ([6]; 15 min): 6.3
- Coefficient of differential accumulation, Kidneys ([6]; 15 min): 10.4
- Coefficient of differential accumulation, Larynx ([6]; 15 min): 4.15
- Coefficient of differential accumulation, Liver ([6]; 15 min): 0.94
- Coefficient of differential accumulation, Lungs ([6]; 15 min): 0.95
- Coefficient of differential accumulation, Lymphonodes ([6]; 15 min): 0.69
- Coefficient of differential accumulation, Spleen ([6]; 15 min): 0.66
- Coefficient of differential accumulation, Thymus gland ([6]; 15 min): 1.67
- Coefficient of differential accumulation, Tumor ([6]; 15 min): 1.76
- Coefficient of differential accumulation, Tyroid gland ([6]; 15 min): 3.5
- Coefficient of differential accumulation, Windpipe ([6]; 15 min): 7.29
- Coefficient of differential accumulation, Blood ([6]; 30 min): 0.91
- Coefficient of differential accumulation, Bone marrow ([6]; 30 min): 6.67
- Coefficient of differential accumulation, Bronchi ([6]; 30 min): 2.83
- Coefficient of differential accumulation, Hypophysis ([6]; 30 min): 6.67
- Coefficient of differential accumulation, Kidneys ([6]; 30 min): 5.4
- Coefficient of differential accumulation, Larynx ([6]; 30 min): 3.43
- Coefficient of differential accumulation, Liver ([6]; 30 min): 0.69
- Coefficient of differential accumulation, Lungs ([6]; 30 min): 0.71
- Coefficient of differential accumulation, Lymphonodes ([6]; 30 min): 0.11
- Coefficient of differential accumulation, Spleen ([6]; 30 min): 0.33
- Coefficient of differential accumulation, Thymus gland ([6]; 30 min): 0.71
- Coefficient of differential accumulation, Tumor ([6]; 30 min): 0.91
- Coefficient of differential accumulation, Tyroid gland ([6]; 30 min): 2.73
- Coefficient of differential accumulation, Windpipe ([6]; 30 min): 4.62
- Coefficient of differential accumulation, Blood ([6]; 60 min): 0.47
- Coefficient of differential accumulation, Bone marrow ([6]; 60 min): 3.78
- Coefficient of differential accumulation, Bronchi ([6]; 60 min): 1.7
- Coefficient of differential accumulation, Hypophysis ([6]; 60 min): 5.13
- Coefficient of differential accumulation, Kidneys ([6]; 60 min): 2.6
- Coefficient of differential accumulation, Larynx ([6]; 60 min): 2.0
- Coefficient of differential accumulation, Liver ([6]; 60 min): 0.76
- Coefficient of differential accumulation, Lungs ([6]; 60 min): 0.86
- Coefficient of differential accumulation, Lymphonodes ([6]; 60 min): 0.69
- Coefficient of differential accumulation, Spleen ([6]; 60 min): 0.32
- Coefficient of differential accumulation, Thymus gland ([6]; 60 min): 0.54
- Coefficient of differential accumulation, Tumor ([6]; 60 min): 0.57
- Coefficient of differential accumulation, Tyroid gland ([6]; 60 min): 1.43
- Coefficient of differential accumulation, Windpipe ([6]; 60 min): 4.64
- Coefficient of differential accumulation, Blood ([6]; 24 hours): 0.05
- Coefficient of differential accumulation, Bone marrow ([6]; 24 hours): 0.76
- Coefficient of differential accumulation, Bronchi ([6]; 24 hours): 0.24
- Coefficient of differential accumulation, Hypophysis ([6]; 24 hours): 4.12
- Coefficient of differential accumulation, Kidneys ([6]; 24 hours): 0.53
- Coefficient of differential accumulation, Larynx ([6]; 24 hours): 0.58
- Coefficient of differential accumulation, Liver ([6]; 24 hours): 0.32
- Coefficient of differential accumulation, Lungs ([6]; 24 hours): 0.26
- Coefficient of differential accumulation, Lymphonodes ([6]; 24 hours): 0.2
- Coefficient of differential accumulation, Spleen ([6]; 24 hours): 0.11
- Coefficient of differential accumulation, Thymus gland ([6]; 24 hours): 0.2
- Coefficient of differential accumulation, Tumor ([6]; 24 hours): 0.26
- Coefficient of differential accumulation, Tyroid gland ([6]; 24 hours): 0.48
- Coefficient of differential accumulation, Windpipe ([6]; 24 hours): 0.6
